# Experiments:
# [1] = system: blackgrass; test: Test B pre/postemergence blackgrass; format: in vivo, Alopecurus myosuroides
# Summary of the method: (§1)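 Response is a visual 0-to-10 score relative to untreated plants, where 0 means no effect and 10 means complete control, taken twelve to sixteen days after application. Treatments went onto soil at planting and onto foliage of 1- to 4-leaf plants, using a surfactant-containing non-phytotoxic solvent.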
# [2] = system: surinam grass; test: Test B pre/postemergence surinam grass; format: in vivo, Brachiaria decumbens
# Summary of the method: as §1
# [3] = system: cocklebur; test: Test B pre/postemergence cocklebur; format: in vivo, Xanthium strumarium
# Summary of the method: as §1
# [4] = system: corn; test: Test B pre/postemergence corn; format: in vivo, Zea mays
# Summary of the method: as §1
# [5] = system: crabgrass; test: Test B pre/postemergence crabgrass; format: in vivo, Digitaria sanguinalis
# Summary of the method: as §1
# [6] = system: giant foxtail; test: Test B pre/postemergence giant foxtail; format: in vivo, Setaria faberii
# Summary of the method: as §1
# [7] = system: morningglory; test: Test B pre/postemergence morningglory; format: in vivo, Ipomoea hederacea; details: for Plant response rating, Morningglory: scale of 0 to 10 where 0 is no effect and 10 is complete control
# Summary of the method: as §1
# [8] = system: pigweed; test: Test B pre/postemergence pigweed; format: in vivo, Amaranthus retroflexus; details: for Plant response rating, Redroot pigweed: scale of 0 to 10 where 0 is no effect and 10 is complete control
# Summary of the method: as §1
# [9] = system: rape; test: Test B pre/postemergence rape; format: in vivo, Brassica napus; details: for Plant response rating, Rape: scale of 0 to 10 where 0 is no effect and 10 is complete control
# Summary of the method: as §1
# [10] = system: soybean; test: Test B pre/postemergence soybean; format: in vivo, Glycine max; details: for Plant response rating, Soybean: scale of 0 to 10 where 0 is no effect and 10 is complete control
# Summary of the method: as §1
# [11] = system: sugar beet; test: Test B pre/postemergence sugar beet; format: in vivo, Beta vulgaris; details: for Plant response rating, Sugarbeets: scale of 0 to 10 where 0 is no effect and 10 is complete control
# Summary of the method: as §1
# [12] = system: velvetleaf; test: Test B pre/postemergence velvetleaf; format: in vivo, Abutilon theophrasti; details: for Plant response rating, Velvetleaf: scale of 0 to 10 where 0 is no effect and 10 is complete control
# Summary of the method: as §1
# [13] = system: wheat; test: Test B pre/postemergence wheat; format: in vivo, Triticum aestivum; details: for Plant response rating, Wheat: scale of 0 to 10 where 0 is no effect and 10 is complete control
# Summary of the method: as §1
# [14] = system: wild oat; test: Test B pre/postemergence wild oat; format: in vivo, Avena fatua; details: for Plant response rating, Wild oats: scale of 0 to 10 where 0 is no effect and 10 is complete control
# Summary of the method: as §1
# [15] = system: purple nutsedge; test: Test B pre/postemergence purple nutsedge; format: in vivo, Cyperus rotundus; details: for Plant response rating, Nutsedge: scale of 0 to 10 where 0 is no effect and 10 is complete control
# Summary of the method: as §1
# [16] = system: rice; test: Test B flood test rice; format: in vivo, Oryza sativa
# Summary of the method: (§2)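 Flood test on plants grown to the 2-leaf stage; treated plants kept in greenhouse twelve to sixteen days, then visually rated against controls on a 0 (no effect) to 10 (complete control) scale.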
# [17] = system: smallflower flatsedge; test: Test B flood test smallflower flatsedge; format: in vivo, Cyperus difformis
# Summary of the method: as §2
# [18] = system: duck salad; test: Test B flood test duck salad; format: in vivo, Heteranthera limosa
# Summary of the method: as §2
# [19] = system: bamyardgrass; test: Test B flood test barnyardgrass; format: in vivo, Echinochloa crus-galli
# Summary of the method: as §2
# [20] = Postemergence, Rate 250 g/ha, scale 0 to 10
# [21] = Postemergence, Rate 500 g/ha, scale of 0 to 10 where 0 is no effect and 10 is complete control
# [22] = Preemergence, Rate 62 g/ha, scale of 0 to 10 where 0 is no effect and 10 is complete control
# [23] = Preemergence, Rate 125 g/ha, scale of 0 to 10 where 0 is no effect and 10 is complete control
# [24] = Preemergence, Rate 250 g/ha, scale 0 to 10, 0 is no effect, 10 is complete control
# [25] = Preemergence, Rate 500 g/ha, scale 0 to 10, 0 is no effect, 10 is complete control
# [26] = Rate 62 g/ha, Postemergence, scale 0 to 10 (0 no effect, 10 complete control)
# [27] = Rate 125 g/ha, Postemergence, scale 0 to 10, 0 is no effect, 10 is complete control
# [28] = Rate 62 g/ha, flood test species, Pre-emergence, visual evaluation after twelve to sixteen days
# [29] = Rate 125 g/ha, under heading Pre-emergence, flood test species, visual evaluation after twelve to sixteen days
# [30] = Rate 250 g/ha, Pre-emergence (flood test species), scale 0 to 10, 0 is no effect, 10 is complete control
# [31] = Rate 500 g/ha, Pre-emergence, flood test species, scale 0 to 10 (0 no effect, 10 complete control)
structure (smiles),measurement,setting,value
CC(=O)NCn1c(=O)on(C(=O)N(c2ccc(F)cc2)C(C)C)c1=O [Compound 473],Blackgrass plant response rating,[1]; [20],0
same,Blackgrass plant response rating,[1]; [21],0
same,"Plant response rating, Blackgrass",[1]; [22],0
same,"Plant response rating, Blackgrass",[1]; [23],0
same,Blackgrass plant response rating,[1]; [24],0
same,Blackgrass plant response rating,[1]; [25],3
same,Blackgrass plant response rating,[1]; [26],0
same,Blackgrass plant response rating,[1]; [27],0
same,B. signalgrass plant response rating,"[2]; Postemergence, Rate 250 g/ha, scale 0 to 10, 0 no effect, 10 complete control",0
same,B. signalgrass plant response rating,[2]; [21],0
same,"Plant response rating, B. signalgrass",[2]; [22],0
same,"Plant response rating, B. signalgrass",[2]; [23],0
same,B. signalgrass plant response rating,[2]; [24],0
same,B. signalgrass plant response rating,[2]; [25],0
same,B. signalgrass plant response rating,[2]; [26],0
same,B. signalgrass plant response rating,[2]; [27],0
same,Cocklebur plant response rating,[3]; [20],0
same,Cocklebur plant response rating,[3]; [21],0
same,"Plant response rating, Cocklebur",[3]; [22],0
same,"Plant response rating, Cocklebur",[3]; [23],0
same,Cocklebur plant response rating,[3]; [25],0
same,Cocklebur plant response rating,[3]; [26],0
same,Cocklebur plant response rating,[3]; [27],0
same,Corn plant response rating,[4]; [20],0
same,Corn plant response rating,[4]; [21],0
same,"Plant response rating, Corn",[4]; [22],0
same,"Plant response rating, Corn",[4]; [23],0
same,Corn plant response rating,[4]; [24],0
same,Corn plant response rating,[4]; [25],0
same,Corn plant response rating,[4]; [26],0
same,Corn plant response rating,[4]; [27],0
same,Crabgrass plant response rating,[5]; [20],3
same,Crabgrass plant response rating,[5]; [21],8
same,"Plant response rating, Crabgrass",[5]; [23],2
same,Crabgrass plant response rating,[5]; [24],4
same,Crabgrass plant response rating,[5]; [25],7
same,Crabgrass plant response rating,[5]; [26],1
same,Crabgrass plant response rating,[5]; [27],2
same,Giant foxtail plant response rating,[6]; [20],6
same,Giant foxtail plant response rating,[6]; [21],7
same,"Plant response rating, Giant foxtail",[6]; [22],2
same,"Plant response rating, Giant foxtail",[6]; [23],3
same,Giant foxtail plant response rating,[6]; [24],4
same,Giant foxtail plant response rating,[6]; [25],7
same,Giant foxtail plant response rating,[6]; [26],1
same,Giant foxtail plant response rating,[6]; [27],2
same,Morningglory plant response rating,[7]; [20],2
same,"Plant response rating, Morningglory","[7]; Preemergence, Rate 62 g/ha",0
same,"Plant response rating, Morningglory","[7]; Preemergence, Rate 125 g/ha",0
same,Morningglory plant response rating,[7]; [24],0
same,Morningglory plant response rating,[7]; [25],0
same,Morningglory plant response rating,[7]; [26],0
same,Morningglory plant response rating,[7]; [27],1
same,Redroot pigweed plant response rating,[8]; [20],0
same,"Plant response rating, Redroot pigweed","[8]; Preemergence, Rate 62 g/ha",2
same,"Plant response rating, Redroot pigweed","[8]; Preemergence, Rate 125 g/ha",10
same,Redroot pigweed plant response rating,[8]; [24],10
same,Redroot pigweed plant response rating,[8]; [25],10
same,Redroot pigweed plant response rating,[8]; [26],0
same,Redroot pigweed plant response rating,[8]; [27],0
same,Rape plant response rating,[9]; [20],0
same,"Plant response rating, Rape","[9]; Preemergence, Rate 62 g/ha",0
same,"Plant response rating, Rape","[9]; Preemergence, Rate 125 g/ha",0
same,Rape plant response rating,[9]; [24],0
same,Rape plant response rating,[9]; [25],0
same,Rape plant response rating,[9]; [26],0
same,Rape plant response rating,[9]; [27],0
same,Soybean plant response rating,[10]; [20],1
same,"Plant response rating, Soybean","[10]; Preemergence, Rate 62 g/ha",0
same,"Plant response rating, Soybean","[10]; Preemergence, Rate 125 g/ha",0
same,Soybean plant response rating,[10]; [24],0
same,Soybean plant response rating,[10]; [25],0
same,Soybean plant response rating,[10]; [26],1
same,Soybean plant response rating,[10]; [27],1
same,Sugarbeets plant response rating,[11]; [20],0
same,"Plant response rating, Sugarbeets","[11]; Preemergence, Rate 62 g/ha",0
same,"Plant response rating, Sugarbeets","[11]; Preemergence, Rate 125 g/ha",0
same,Sugarbeets plant response rating,[11]; [24],0
same,Sugarbeets plant response rating,[11]; [25],0
same,Sugarbeets plant response rating,[11]; [26],0
same,Sugarbeets plant response rating,[11]; [27],0
same,Velvetleaf plant response rating,[12]; [20],0
same,"Plant response rating, Velvetleaf","[12]; Preemergence, Rate 62 g/ha",0
same,"Plant response rating, Velvetleaf","[12]; Preemergence, Rate 125 g/ha",0
same,Velvetleaf plant response rating,[12]; [24],0
same,Velvetleaf plant response rating,[12]; [25],0
same,Velvetleaf plant response rating,[12]; [26],0
same,Velvetleaf plant response rating,[12]; [27],0
same,Wheat plant response rating,[13]; [20],0
same,"Plant response rating, Wheat","[13]; Preemergence, Rate 62 g/ha",0
same,"Plant response rating, Wheat","[13]; Preemergence, Rate 125 g/ha",0
same,Wheat plant response rating,[13]; [24],0
same,Wheat plant response rating,[13]; [25],0
same,Wheat plant response rating,[13]; [26],0
same,Wheat plant response rating,[13]; [27],0
same,Wild oats plant response rating,[14]; [20],0
same,"Plant response rating, Wild oats","[14]; Preemergence, Rate 62 g/ha",0
same,"Plant response rating, Wild oats","[14]; Preemergence, Rate 125 g/ha",0
same,Wild oats plant response rating,[14]; [24],0
same,Wild oats plant response rating,[14]; [25],0
same,Wild oats plant response rating,[14]; [26],0
same,Wild oats plant response rating,[14]; [27],0
same,Nutsedge plant response rating,[15]; [20],0
same,"Plant response rating, Nutsedge","[15]; Preemergence, Rate 62 g/ha",0
same,"Plant response rating, Nutsedge","[15]; Preemergence, Rate 125 g/ha",0
same,Nutsedge plant response rating,[15]; [24],0
same,Nutsedge plant response rating,[15]; [26],0
same,Nutsedge plant response rating,[15]; [27],0
same,"Plant response rating, Rice (0 to 10 scale, 0 is no effect, 10 is complete control)",[16]; [28],0
same,"Rice plant response rating (0 to 10 scale, 0 is no effect, 10 is complete control)",[16]; [29],0
same,Rice plant response rating,[16]; [30],0
same,Rice plant response rating,[16]; [31],0
same,"Plant response rating, S. Flatsedge (0 to 10 scale, 0 is no effect, 10 is complete control)",[17]; [28],0
same,"S. Flatsedge plant response rating (0 to 10 scale, 0 is no effect, 10 is complete control)",[17]; [29],0
same,S. Flatsedge plant response rating,[17]; [30],0
same,S. Flatsedge plant response rating,[17]; [31],0
same,"Plant response rating, Ducksalad (0 to 10 scale, 0 is no effect, 10 is complete control)",[18]; [28],0
same,"Ducksalad plant response rating (0 to 10 scale, 0 is no effect, 10 is complete control)",[18]; [29],0
same,Ducksalad plant response rating,[18]; [30],0
same,Ducksalad plant response rating,[18]; [31],0
same,"Plant response rating, Barnyardgrass (0 to 10 scale, 0 is no effect, 10 is complete control)",[19]; [28],0
same,"Barnyardgrass plant response rating (0 to 10 scale, 0 is no effect, 10 is complete control)",[19]; [29],0
same,Barnyardgrass plant response rating,[19]; [30],0
same,Barnyardgrass plant response rating,[19]; [31],0
